Measurements: BindingDB's records for doi:10.7270/Q2DF6PMF (Nmmlsc, 2007)

Molecular target: T1, N-formyl peptide receptor 2 (Homo sapiens, UniProt P25090)
T1 sequence (P25090 whole entry): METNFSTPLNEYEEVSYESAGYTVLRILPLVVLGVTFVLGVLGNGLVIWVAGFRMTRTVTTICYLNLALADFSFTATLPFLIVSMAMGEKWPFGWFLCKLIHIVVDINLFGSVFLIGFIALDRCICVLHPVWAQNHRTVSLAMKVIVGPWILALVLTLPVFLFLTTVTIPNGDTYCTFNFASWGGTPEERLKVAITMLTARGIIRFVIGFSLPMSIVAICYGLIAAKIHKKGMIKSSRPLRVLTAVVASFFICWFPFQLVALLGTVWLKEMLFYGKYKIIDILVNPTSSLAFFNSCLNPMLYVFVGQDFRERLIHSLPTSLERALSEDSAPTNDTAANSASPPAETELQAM
Experiment: FPRL1 binding inhibitor potency, dose response, cell-based, FPR counter-screen, fluorescent ligand (AID 520)

Row | SMILES | IC50 | Ki
1 | O=C(NCCN1CCOCC1)NC1(C(F)(F)F)Oc2ccc(Cl)cc2O1 (centres undefined) | > 66.7 µM | –
2 | CCn1cc(C(=O)NC2CCC(C)CC2)c(=O)c2cc(S(=O)(=O)N3CCCCC3)ccc21 (centres undefined) | > 66.7 µM | –
3 | O=c1c2c(nc3c(-c4ccc(Cl)cc4)c[nH]n13)CCCC2 | > 66.7 µM | –
4 | CCOC(=O)Cc1cc(=O)n2[nH]c(C)c(-c3ccccc3)c2n1 | > 66.7 µM | –
5 | N[C@@H](Cc1ccc(O)c(I)c1)C(=O)O | > 66.7 µM | –
6 | COC(=O)c1[nH]c(C)c(C(=O)C2C(=O)C(=O)N(CCN3CCOCC3)C2c2cccs2)c1C (centres undefined) | > 66.7 µM | > 40.3 µM
7 | CCCc1cc(=O)n2[nH]c(C)c(-c3ccccc3)c2n1 | > 66.7 µM | –
8 | CC1=NC(C)=C(C#N)C(c2ccc3ncccc3c2)C1C#N (centres undefined) | > 66.7 µM | > 40.3 µM
9 | O=C(NC1CCCC1)c1sc(=S)n2c1[nH]c(=O)c1ccccc12 | > 66.7 µM | –
10 | CC(C)OC(=O)c1cc(NC(=O)C2C3CCC(O3)C2C(=O)O)cc(C(=O)OC(C)C)c1 (centres undefined) | > 66.7 µM | –
11 | CCN(C(=O)Cc1c(C(=O)O)[nH]c2ccccc12)c1cc(OC)ccc1OC | > 66.7 µM | –
12 | CCOC(=O)Cc1cc(=O)n2[nH]c(C)c(-c3ccc(OC)cc3)c2n1 | > 66.7 µM | –
13 | CCOC(=O)c1oc2cc(O)ccc2c(=O)c1-c1ccccc1OC | > 66.7 µM | –
14 | Cc1nc2c(C#N)c(C)[nH]n2c(=O)c1Cc1ccccc1 | > 66.7 µM | –
15 | CCOC(=O)c1c(-c2ccc(-c3ccccc3)cc2)csc1NC(=O)C1C2CCC(O2)C1C(=O)O (centres undefined) | > 66.7 µM | –
16 | Nc1ccc(Nc2ccccc2)cc1 | > 66.7 µM | –
17 | O=c1c(CC[S+]([O-])c2ccccc2)c(O)n(-c2ccccc2)n1-c1ccccc1 (centres undefined) [1,2-Diphenyl-3,5-dioxo-4-(2-phenylsulfinylethyl)pyrazolidine] | > 66.7 µM | > 40.3 µM
18 | COC(=O)C1(S(=O)(=O)c2cccc3nsnc23)CC1 [1-(2,1,3-benzothiadiazol-4-ylsulfonyl)-1-cyclopropanecarboxylic acid methyl ester] | > 66.7 µM | –
19 | COc1cccc2cc(C(=O)C3C(=O)C(=O)N(Cc4ccco4)C3c3cccnc3)oc12 (centres undefined) [1-(2-furanylmethyl)-4-hydroxy-3-[(7-methoxy-2-benzofuranyl)-oxomethyl]-2-(3-pyridinyl)-2H-pyrrol-5-one] | > 66.7 µM | > 40.3 µM
20 | COc1cc(C2C(C(=O)c3cccs3)C(=O)C(=O)N2Cc2ccco2)cc(OC)c1OC (centres undefined) [1-(2-furanylmethyl)-4-hydroxy-3-[oxo(thiophen-2-yl)methyl]-2-(3,4,5-trimethoxyphenyl)-2H-pyrrol-5-one] | > 66.7 µM | > 40.3 µM
21 | O=C1C(=O)N(Cc2ccco2)C(c2ccccc2)C1C(=O)c1cccs1 (centres undefined) [1-(2-furanylmethyl)-4-hydroxy-3-[oxo(thiophen-2-yl)methyl]-2-phenyl-2H-pyrrol-5-one] | > 66.7 µM | > 40.3 µM
22 | COCCN1C(=O)C(=O)C(C(=O)c2cccs2)C1c1ccccc1 (centres undefined) [1-(2-methoxyethyl)-4-oxidanyl-2-phenyl-3-thiophen-2-ylcarbonyl-2H-pyrrol-5-one] | > 66.7 µM | > 40.3 µM
23 | O=C1C(=O)N(CCN2CCOCC2)C(c2ccccc2)C1C(=O)c1cccs1 (centres undefined) [1-(2-morpholin-4-ylethyl)-4-oxidanyl-2-phenyl-3-thiophen-2-ylcarbonyl-2H-pyrrol-5-one] | > 66.7 µM | > 40.3 µM
24 | CCC(NC(=O)Nc1cc(OC)c(OC)c(OC)c1)(C(F)(F)F)C(F)(F)F [1-(3,4,5-trimethoxyphenyl)-3-[1,1,1-tris(fluoranyl)-2-(trifluoromethyl)butan-2-yl]urea] | > 66.7 µM | –
25 | Cc1ccc(C(=O)C2C(=O)C(=O)N(CCCn3ccnc3)C2c2ccc(OC(C)C)cc2)o1 (centres undefined) [1-(3-imidazol-1-ylpropyl)-3-(5-methylfuran-2-yl)carbonyl-4-oxidanyl-2-(4-propan-2-yloxyphenyl)-2H-pyrrol-5-one] | > 66.7 µM | > 40.3 µM
26 | CCCOc1ccc(C2C(C(=O)c3ccc(C)o3)C(=O)C(=O)N2CCCn2ccnc2)cc1 (centres undefined) [1-(3-imidazol-1-ylpropyl)-3-(5-methylfuran-2-yl)carbonyl-4-oxidanyl-2-(4-propoxyphenyl)-2H-pyrrol-5-one] | > 66.7 µM | > 40.3 µM

The remaining lines, values ahead:

Row | IC50 | Ki | SMILES
27 | > 66.7 µM | – | CC(C)OC(=O)c1nnn(-c2nonc2N)c1CN1CCc2ccccc2C1 [1-(4-amino-1,2,5-oxadiazol-3-yl)-5-(3,4-dihydro-1H-isoquinolin-2-ylmethyl)-4-triazolecarboxylic acid propan-2-yl ester]
28 | > 66.7 µM | – | CCCN=C(S)Nc1ccc(Nc2ccccc2)cc1 [1-(4-anilinophenyl)-3-propyl-thiourea]
29 | > 66.7 µM | – | CCOC(=O)C1CCN(Cc2ccc(C(=O)OC)cc2)CC1 [1-(4-carbomethoxybenzyl)isonipecotic acid ethyl ester]
30 | > 66.7 µM | > 40.3 µM | C=CCOc1ccc(C2C(C(=O)c3cccs3)C(=O)C(=O)N2c2nnc(C)s2)cc1 (centres undefined) [1-(5-methyl-1,3,4-thiadiazol-2-yl)-4-oxidanyl-2-(4-prop-2-enoxyphenyl)-3-thiophen-2-ylcarbonyl-2H-pyrrol-5-one]
31 | > 66.7 µM | > 40.3 µM | O=C1C(=O)N(Cc2ccccc2)C(c2cccnc2)C1C(=O)c1ccco1 (centres undefined) [1-Benzyl-4-(furan-2-carbonyl)-3-hydroxy-5-pyridin-3-yl-1,5-dihydro-pyrrol-2-one]
32 | > 66.7 µM | > 40.3 µM | O=C1C(=O)N(Cc2ccccc2)C(c2ccncc2)C1C(=O)c1ccco1 (centres undefined) [1-Benzyl-4-(furan-2-carbonyl)-3-hydroxy-5-pyridin-4-yl-1,5-dihydro-pyrrol-2-one]
33 | > 66.7 µM | > 40.3 µM | O=C1C(=O)N(Cc2ccccc2)C(c2ccco2)C1C(=O)c1ccco1 (centres undefined) [1-Benzyl-4-(furan-2-carbonyl)-5-furan-2-yl-3-hydroxy-1,5-dihydro-pyrrol-2-one]
34 | > 66.7 µM | > 40.3 µM | O=C1C(=O)N(CCOCCO)C(c2cccs2)C1C(=O)c1cccs1 (centres undefined) [1-[2-(2-hydroxyethyloxy)ethyl]-4-oxidanyl-2-thiophen-2-yl-3-thiophen-2-ylcarbonyl-2H-pyrrol-5-one]
35 | > 66.7 µM | > 40.3 µM | COc1ccc(CCN2C(=O)C(=O)C(C(=O)c3ccco3)C2c2cccs2)cc1OC (centres undefined) [1-[2-(3,4-Dimethoxy-phenyl)-ethyl]-4-(furan-2-carbonyl)-3-hydroxy-5-thiophen-2-yl-1,5-dihydro-pyrrol-2-one]
36 | > 66.7 µM | – | OCc1nc2ccccc2n1CC(O)Cn1ccc2ccccc21 (centres undefined) [1-[2-(hydroxymethyl)-1-benzimidazolyl]-3-(1-indolyl)-2-propanol]
37 | > 66.7 µM | – | COc1ccc2nc(Nc3nc(C)c(C(C)=O)s3)sc2c1 [1-[2-[(6-methoxy-1,3-benzothiazol-2-yl)amino]-4-methyl-1,3-thiazol-5-yl]ethanone]
38 | > 66.7 µM | – | CN1CCN(CCCNC(=O)Nc2cccc3ccccc23)CC1 [1-[3-(4-methyl-1-piperazinyl)propyl]-3-(1-naphthalenyl)urea]
39 | > 66.7 µM | – | C=CCn1c(SCCCC)nc(O)cc1=O [1-allyl-2-(butylthio)-6-hydroxy-pyrimidin-4-one]
40 | > 66.7 µM | – | Cc1c(CNCc2cccs2)c(C(=O)O)c(C)n1Cc1ccccc1 [1-benzyl-2,5-dimethyl-4-[(2-thenylamino)methyl]pyrrole-3-carboxylic acid]
41 | > 66.7 µM | > 40.3 µM | Cc1ccc(C(=O)C2C(=O)C(=O)N(Cc3ccccc3)C2c2cccnc2)o1 (centres undefined) [1-benzyl-3-hydroxy-4-[(5-methylfuran-2-yl)carbonyl]-5-(pyridin-3-yl)-2,5-dihydro-1H-pyrrol-2-one]
42 | > 66.7 µM | – | Cc1cccc(Nc2ccccc2C(=O)NCc2ccco2)c1C [2-(2,3-dimethylanilino)-N-(2-furanylmethyl)benzamide]
43 | > 66.7 µM | > 40.3 µM | COc1ccc(OC)c(C2C(C(=O)c3cccs3)C(=O)C(=O)N2c2cc(C)on2)c1 (centres undefined) [2-(2,5-dimethoxyphenyl)-1-(5-methyl-1,2-oxazol-3-yl)-4-oxidanyl-3-thiophen-2-ylcarbonyl-2H-pyrrol-5-one]
44 | > 66.7 µM | > 40.3 µM | COc1ccc(OC)c(C2C(C(=O)c3ccco3)C(=O)C(=O)N2CCCN2CCOCC2)c1 (centres undefined) [2-(2,5-dimethoxyphenyl)-3-(furan-2-carbonyl)-4-hydroxy-1-(3-morpholin-4-ylpropyl)-2H-pyrrol-5-one]
45 | > 66.7 µM | – | CCCOc1ccc2c(=O)c(N3C(=O)c4ccccc4C3=O)c(C)oc2c1 [2-(2-methyl-4-oxidanylidene-7-propoxy-chromen-3-yl)isoindole-1,3-dione]
46 | > 66.7 µM | > 40.3 µM | O=C1C(=O)N(c2ncccn2)C(c2ccc(Cl)c(Cl)c2)C1C(=O)c1ccco1 (centres undefined) [2-(3,4-dichlorophenyl)-3-(furan-2-carbonyl)-4-hydroxy-1-pyrimidin-2-yl-2H-pyrrol-5-one]
47 | > 66.7 µM | > 40.3 µM | COc1ccc(C2C(C(=O)c3cccs3)C(=O)C(=O)N2c2nnc(C)s2)cc1OC (centres undefined) [2-(3,4-dimethoxyphenyl)-1-(5-methyl-1,3,4-thiadiazol-2-yl)-4-oxidanyl-3-thiophen-2-ylcarbonyl-2H-pyrrol-5-one]
48 | > 66.7 µM | > 40.3 µM | COc1ccc(C2C(C(=O)c3ccco3)C(=O)C(=O)N2CCc2ccccc2)cc1OC (centres undefined) [2-(3,4-dimethoxyphenyl)-3-(furan-2-carbonyl)-4-hydroxy-1-(2-phenylethyl)-2H-pyrrol-5-one]
49 | > 66.7 µM | > 40.3 µM | COc1ccc(C2C(C(=O)c3ccco3)C(=O)C(=O)N2Cc2cccnc2)cc1OC (centres undefined) [2-(3,4-dimethoxyphenyl)-3-(furan-2-carbonyl)-4-hydroxy-1-(pyridin-3-ylmethyl)-2H-pyrrol-5-one]
50 | > 66.7 µM | > 40.3 µM | COc1cc(C2C(C(=O)c3ccco3)C(=O)C(=O)N2c2cc(C)on2)cc(Br)c1O (centres undefined) [2-(3-bromanyl-5-methoxy-4-oxidanyl-phenyl)-3-(furan-2-ylcarbonyl)-1-(5-methyl-1,2-oxazol-3-yl)-4-oxidanyl-2H-pyrrol-5-one]
